The text below walks through data of patent publication US20080176952A1, “Management of Ophthalmologic Disorders, Including Macular Degeneration” (priority 2004, published 2008).

The target in one assay is T1, RPE65 (Bos taurus, UniProt Q28175).
T1 construct: Frozen bovine eyecups devoid of retinas were purchased from W. L. Lawson Co; tissue W. L. Lawson Co; host or cells: bovine eyecups (retinal pigment epithelium)
Description: Fluorescence binding assay of retinoids and analogs to purified RPE65. Details: species or system bovine. Particulars: antagonist of RPE65; read-out: KD. The protocol:
Purification of mRPE65, sRPE65 and rHRPE65: Purification was performed as described before (Ma et al., 2001). The purities of these proteins were verified by silver staining or Coomassie staining and Western blot (1:4000 primary antibody-1 h at room temperature and 1:4000 secondary antibody-0.5 h at room temperature).
(§1) Fluorescence binding assays: RPE65 in PBS, 1% CHAPS, pH 7.4 was used in the fluorometric titration studies. Protein concentrations were measured by a modified Lowry method (Lowry et al., 1951). All titrations were performed at 25° C. The samples in PBS buffer were excited at 280 nm and the fluorescence was scanned from 300 to 500 nm. Fluorescence measurements, using 450 μL quartz cuvettes with a 0.5 cm path length, were made at 25° C. on a Jobin Yvon Instruments, Fluoromax 2 employing the right-angle detection method.
(§2) The fluorescence of the protein solution was measured after equilibrating it at 25° C. for 10 min. The sample was then titrated with a solution of retinoid dissolved in dimethyl sulfoxide. In each titration, to a 250 μL solution of the protein an equal amount of retinoid, typically 0.2 μL. was added and thoroughly mixed before allowing it to equilibrate for 10 min prior to recording the fluorescence intensity. […] The binding constant (KD) was calculated from the fluorescence intensity by using the following equation (Gollapalli et al., 2003).
where P0=Total protein concentration,
n=number of independent binding sites, R0=Total retixioid concentration at each addition, KD=dissociation constant, Fmax=Fluorescence intensity at saturation, and F0=Initial fluorescence intensity.

In the next assay the target is mouse RPE65. Description: Constants of affinity (Kds) for mouse RPE65. It counts as binding. Particulars: read-out: Kd (constant of affinity) for mouse RPE65. As to the method: as §1, §2
The constants of affinity (Kds) of several compounds for mouse RPE65 were determined. […] Thus, the potency of binding is a function of the ester chain length, i.e., the longer the chain length, the stronger the affinity for RPE65 is and the stronger the antagonist is.

Another assay deals with A2E formation. Description: In vitro A2E formation in the presence of aromatic amine. The protocol: 100 mg (355 μmoles) of all-trans-retinal was dissolved in 3 mL followed by the addition of 9.5 μL of glacial acetic acid 9.5 μL of ethanolamine (155 μmoles). This solution was aliquoted into 300 μL fractions. 3-aminoethylbenzoate (15.5 μmoles) was added to the samples at 0, 2, 3.75, 14, 16.25, 18.0833 19.917 23.75 and 48 hrs. […] The solutions were shaken at room temperature for 48 hrs. The solutions were then kept at −80° C. and 15 μL was diluted to 250 μL (methanol). The solutions (15 μL) were then analyzed on a reverse phase (C18-5 μm-4.6 mm×150 mm) column on a linear gradient 85%-96% methanol/water and UV detector at 430 nm to determine the amount of A2E formation. The percent A2E formation was compared to A2E formation at 48 h in the absence of aromatic amine.

In the next assay the test system is A2E accumulation. Description: In vivo A2E accumulation in abcr knockout mice. Particulars: for A2E accumulation / iso-A2E accumulation / total (A2E + iso-A2E) accumulation: 50 mg/kg once or twice a week, 2 to 2½ months; for reduction of A2E accumulation / reduction of iso-A2E accumulation / reduction of total A2E accumulation: versus no drug. As to the method: Effects on accumulation of A2E in abcr knockout mice by farnesyl decyl ketone and N-palmityl farnesimide were investigated. Mice were injected with 50 mg/kg drug in 25 microliters of DMSO or with only DMSO for the control group once or twice a week. After 2 to 2½ months, the mice were sacrificed, and A2E and iso-A2E were harvested and quantitated from 4 eyes for each drug or control.

T1 sequence (Q28175 whole entry): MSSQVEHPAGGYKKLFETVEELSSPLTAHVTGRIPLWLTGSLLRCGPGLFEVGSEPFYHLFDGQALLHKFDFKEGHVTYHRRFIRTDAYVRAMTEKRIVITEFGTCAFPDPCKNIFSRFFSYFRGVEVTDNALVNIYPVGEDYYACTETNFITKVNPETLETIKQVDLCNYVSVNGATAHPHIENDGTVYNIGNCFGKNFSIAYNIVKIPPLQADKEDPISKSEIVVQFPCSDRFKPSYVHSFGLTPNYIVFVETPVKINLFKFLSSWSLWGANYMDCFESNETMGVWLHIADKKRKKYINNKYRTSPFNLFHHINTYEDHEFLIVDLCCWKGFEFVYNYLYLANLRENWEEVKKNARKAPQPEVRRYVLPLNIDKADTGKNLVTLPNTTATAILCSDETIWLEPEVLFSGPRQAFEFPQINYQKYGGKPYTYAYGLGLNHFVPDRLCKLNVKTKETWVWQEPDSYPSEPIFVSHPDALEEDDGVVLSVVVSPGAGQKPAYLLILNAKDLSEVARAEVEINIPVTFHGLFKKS

Turning to `CCCCCCCCCCCCCCCCOC/C=C(\C)CC/C=C(\C)CC/C=C(\C)CCC=C(C)C` [geranylgeranyl palmityl ether], the Kd (as a rule, the concentration at which binding is half-saturated) on RPE65 worked out at 195 nM. Same read-out and setting: in the case of `CCCCCCCCCCCCCCCCC(O)/C=C(C)/C=C/C=C(C)/C=C/C1=C(C)CCCC1(C)C` (stereo not shown) [palmityl retinyl alcohol] it was 170 nM. For the compound `CC(=O)OC/C=C(C)/C=C/C=C(C)/C=C/C1=C(C)CCCC1(C)C` [retinyl acetate], the Kd on RPE65 and on mouse RPE65 was 1300 nM throughout. In the case of `CCCCCCCCCCCCCCCC(=O)CC/C=C(\C)CC/C=C(\C)CCC=C(C)C`, the Kd at RPE65 amounted to 96 nM. Same read-out and setting: in the case of `CCCCCCCCCCCCCCCC(=O)NC/C=C(\C)CC/C=C(\C)CCC=C(C)C` it was 56 nM; in that of `CCCCCCCCCCCCCCCC(=O)OC/C=C(\C)CC/C=C(\C)CC/C=C(\C)CCC=C(C)C` [geranylgeranyl palmitate], 213 nM. For the compound `CC1=C(/C=C/C(C)=C/C=C/C(C)=C/C(=O)N(C)C)C(C)(C)CCC1` [N,N-dimethyl retinimide], the Kd at RPE65 came out at 3580 nM. In the case of `CCOC(=O)c1cccc(N)c1` [3-aminoethylbenzoate, ethyl 3-aminobenzoate], the “A2E formation % formation (48 Hrs = 100)” value in the assay with A2E formation (aromatic amine added at 0 hrs, read at 48 hrs) was determined as 3.98%; with A2E formation (aromatic amine added at 2 hrs, read at 48 hrs), 8.67%; in the assay with A2E formation (aromatic amine added at 3.75 hrs, read at 48 hrs) it was 7.71%; in the assay with A2E formation (aromatic amine added at 14 hrs, read at 48 hrs), 19.73%; in the assay on A2E formation (aromatic amine added at 16.25 hrs, read at 48 hrs), 19.25%; in the assay with A2E formation (aromatic amine added at 18.0833 hrs, read at 48 hrs) it was 23.70%. In addition, the “A2E formation % formation (48 Hrs = 100)” value was 27.65% with A2E formation (aromatic amine added at 19.91667 hrs, read at 48 hrs); 22.44% with A2E formation (aromatic amine added at 23.75 hrs, read at 48 hrs); 100.00% with A2E formation (aromatic amine added at 48 hrs, reference = 100). For `CC1=C(/C=C/C(C)=C/C=C/C(C)=C/C(=O)NC(C)(C)C)C(C)(C)CCC1` [N-tert-butyl retinimide], the Kd at RPE65 was 4320 nM.

Regarding `CCCCCCCCCCCCCCCC(=O)OC/C=C(C)/C=C/C1=C(C)CCCC1(C)C` [β-ionoacetyl palmitate], on RPE65, the Kd is 153 nM. The same measure, in the same setting: the same measure for `CC(=O)CC/C=C(C)/C=C/C=C(C)/C=C/C1=C(C)CCCC1(C)C`: 3790 nM; for `CCCCCCCCCC(=O)CC/C=C(C)/C=C/C=C(C)/C=C/C1=C(C)CCCC1(C)C`: 173 nM. As for `CCCCCCCCCCCCCCCC(=O)OC/C=C(\C)CC/C=C(\C)CCC=C(C)C` [farnesyl palmitate], the Kd on RPE65 worked out at 63 nM. As to `CCCCCCCCCCCCCCCC(=O)OC/C=C(\C)CCC=C(C)C` [geranyl palmitate], the Kd at RPE65 was 301 nM.

With `COCCOCCOC/C=C(C)/C=C/C=C(C)/C=C/C1=C(C)CCCC1(C)C` [retinyl [2-(2′-methoxy)ethoxy]ethyl ether], the Kd at RPE65 was determined as 486 nM. As to `CCCCCCCCCCCCCCCCNC(=O)/C=C(C)/C=C/C=C(C)/C=C/C1=C(C)CCCC1(C)C` [N-palmityl retinimide], the Kd at RPE65 is 40 nM. For the compound `CCCCCCOC/C=C(C)/C=C/C=C(C)/C=C/C1=C(C)CCCC1(C)C` [hexyl retinyl ether], at RPE65, the Kd amounted to 151 nM. Same read-out and setting: the same measure for `CCCCCCCCCCCCCCCCOC/C=C(C)/C=C/C1=C(C)CCCC1(C)C` [β-ionoacetyl palmityl ether]: 156 nM. The same measure, in the same setting: in the case of `CCCCCCCCCCCCCCCCC(=O)/C=C(C)/C=C/C=C(C)/C=C/C1=C(C)CCCC1(C)C` [palmityl retinyl ketone] it was 64 nM; in that of `COC/C=C(C)/C=C/C=C(C)/C=C/C1=C(C)CCCC1(C)C` [methyl retinyl ether], 24 nM.

Turning to `CCCCCCCCCCC(=O)CC=C(C)CCC=C(C)CCC=C(C)C` [farnesyl decyl ketone], in the assay with A2E accumulation, the A2E accumulation was 2.00 pmoles/eye, the iso-A2E accumulation is reported as 0.66 pmoles/eye, the “total (A2E + iso-A2E) accumulation” value was found to be 2.66 pmoles/eye and the “reduction of A2E accumulation” value is given as “over 80%”. In the assay on A2E accumulation, the “reduction of iso-A2E accumulation” value is listed as “about 74%” and the “reduction of total A2E accumulation” value is “about 80%”. Regarding `CCCCCCCCCC(=O)CC/C=C(\C)CC/C=C(\C)CCC=C(C)C`, the Kd on RPE65 came to 56 nM. The same measure, in the same setting: in the case of `CCCCCCCCCCCCCCCCOC/C=C(\C)CCC=C(C)C` [geranyl palmityl ether] it was 416 nM. Take `CCCCCCCCCCCCCCCCOC/C=C(\C)CC/C=C(\C)CCC=C(C)C` [farnesyl palmityl ether]: the Kd at RPE65 worked out at 60 nM. The same measure, in the same setting: the same measure for `CC(=O)/C=C(C)/C=C/C=C(C)/C=C/C1=C(C)CCCC1(C)C` [methyl retinyl ketone]: 3790 nM. On to `CCCCCCCCCCCCCCCCNC(=O)C/C=C(\C)CC/C=C(\C)CCC=C(C)C` [N-palmityl farnesimide], for which, in the assay with A2E accumulation, the A2E accumulation came to 5.38 pmoles/eye, the iso-A2E accumulation worked out at 1.70 pmoles/eye, the “total (A2E + iso-A2E) accumulation” value turned out to be 7.09 pmoles/eye and the “reduction of A2E accumulation” value is on record as “over 50%”. Also, in the assay on A2E accumulation, the “reduction of iso-A2E accumulation” value is given as “about 33%” and the “reduction of total A2E accumulation” value is “about 47%”. Consider `CCCCCCCCCCCCCCCC(=O)CC/C=C(C)/C=C/C=C(C)/C=C/C1=C(C)CCCC1(C)C` [4f], for which the Kd at RPE65 and at mouse RPE65 was 64 nM each time.

As for retinyl hexanoate, the Kd at RPE65 and at mouse RPE65 was 235 nM in each case.

`CCCCCCCCCCCCCCCC(=O)NC/C=C(C)/C=C/C=C(C)/C=C/C1=C(C)CCCC1(C)C` [4e]: the Kd on mouse RPE65 worked out at 40 nM.

As to `CCCCCCCCCCCCCCCCOC/C=C(C)/C=C/C=C(C)/C=C/C1=C(C)CCCC1(C)C` [palmityl retinyl ether], the Kd is 25 nM at RPE65 and 21 nM at mouse RPE65.
